In US11813362B2, “Film-coated tablet comprising a triazine derivative for use in the treatment of diabetes” (Poxel, priority 2018, dated 2023):

Assay: Compatibility tests of imeglimin with excipients as 50:50 (w/w) binary mixture
Type: physicochemical
Text: In a preferred embodiment, the binder consists of hydroxypropylcellulose. In other embodiments, it may comprise at least one other binder in addition to hydroxypropylcellulose, which may be selected from: microcrystalline cellulose, methylcellulose, ethylcellullose, hydroxyethylcellulose, hydroxypropylmethylcellulose (hypromellose), sodium carboxymethylcellulose (carmellose), gelatin, gum arabic, dextrin, maltodextrin, pregelatinized starch, gelatin, acacia gum, guar gum, sodium alginate, alginic acid, carbomer, polyvinyl alcohol and mixtures thereof. […] The binder(s) may represent from 1.5 to 4.5 wt. %, preferably from 3.5 to 4.5 wt. %, relative to the total weight of the tablet.
In addition to the binder(s), the tablet of this invention comprises at least one disintegrant. […] The disintegrant may thus be selected from the group consisting of: sodium croscarmellose, sodium carboxymethyl starch, hydroxypropylcellulose, calcium carboxymethylcellulose, microcrystalline cellulose, calcium carbonate, magnesium aluminum silicate, sodium starch glycolate, pregelatinized starch, sodium alginate, alginic acid, guar gum and their mixtures, for instance. Preferably, the disintegrant comprises, or preferably is, sodium croscarmellose. The disintegrant(s) may represent from 1.5 to 3 wt. %, preferably from 1.8 to 2.2 wt. %, relative to the total weight of the tablet.

formation of degradation products (compatibility) (50:50 (w/w) binary mixture with crospovidone): degradation products are formed
formation of degradation products (compatibility) (50:50 (w/w) binary mixture with polyvinylpyrrolidone (povidone)): degradation products are formed
SMILES: C[C@@H]1NC(=N)N=C(N(C)C)N1.Cl [imeglimin, (+)-2-amino-3,6-dihydro-4-dimethylamino-6-methyl-1,3,5-triazine hydrochloride]
